Assay results reported in publication PMC2192259 (The Journal of Experimental Medicine, 1995).
Entries after “also recorded” stand apart in the source; their conditions may differ.

System: 20S proteasome
Experiment: 20S proteasome from BALB.SV cells in assay buffer
Conditions: 37C, up to 24 h

## MDIGAYPHFMPTNLAGDPY
  fragment found: YPHFMPTNL, major; also recorded: YPH- FMPTNL(ox)
